Measurements taken from patent publication US8969373B2, “HCV protease inhibitors” (Shanghai Tangrun Pharmaceuticals Co., Ltd., priority 2011, dated 2015).

Key:
[1] = tested on: HCV replicon (pSGR-399LM) in Huh7 cells; assay: Inhibitory activity in the HCV replicon system (Renilla luciferase); format: cell-based; conditions: Hepatitis C virus, Huh-7, pSGR-399LM replicon Huh7 cells, 72 hr
Method: The Inhibitory Activity of Compounds in the HCV Replicon System
HCV replicon cell-line: The Huh7 cells were transfected with pSGR-399LM replicon DNA and cultured in the DMEM containing 10% FBS and 0.5 mg/mL G418. The cells were split at 1:3 to 1:5 every 3-4 days. The transfected cells were seeded in 96-well plates and cultured at 37° C., 5% CO2 for 24 hr.
Treatment with samples: To the HCV replicon Huh7 cells-line were added different concentration of the samples (i.e. compound Ik, wherein k=1, 2, 3 . . . 42), the each concentration for duplicate, and set no sample control wells. The concentration started at 400 nM, with quarter dilution to form five different concentrations of samples, that is 400 nM, 100 nM, 25 nM, 6.25 nM and 1.56 nM. The samples were added separately, and continued to incubated for 72 hr.
Fluorescence detection: After 72 hr treatment with sample, the cells were lysed and added with Renilla luciferase substrate to detect luminescent signal. The relative luminescent unit (RLU) in the luminometer was read out and used to calculate the inhibition rate of HCV.

[2] = tested on: HCV (J399EM virus) in Huh7.5.1 cells; assay: Inhibition of HCV replication in HCV infected human hepatocellular carcinoma cells (Huh7.5.1), HCV-EGFP fluorescence; format: cell-based; conditions: Hepatitis C virus, Huh-7.5.1, 72 h, read-out: HCV infected human hepatocellular carcinoma cells in vitro EC50(nM)
Method: In Vitro Inhibitory Activity of Compounds in HCV Replication in HCV Infected Human Hepatocellular Carcinoma Cells (Huh7.5.1)
The preparation of Huh7.5.1cells: Huh 7.5.1 cells were seeded at a 96-well plate with 37 and 5% CO2 for 24 hours incubation.
Virus infection: Using the J399EM virus supernatants (moi≈0.1) to infect Huh7.5.1cells. At the same time, the no virus infected cell will be set up as the control. After 8 hours virus infection, the virus will be washed out with PBS.
Drug treatment: The different doses of samples (i.e. the compound Ik, wherein k=1, 2, 3, . . . 42) were added in J399EM infected Huh7.5.1 cells, the each dose for duplicate. At the same time the no sample added in wells will be set up as the control. The test dose of sample is starting from 25 nM or 400 nM, with quarter dilution, 5 doses of sample will be added in the test wells, respectively, then continued for 72 hours incubation.
HCV-EGFP fluorescence detection: After samples treatment for 72 hours, the autofluorescence of HCV-EGFP were measured by the luminometer with excitation of 488 nm, and emission of 516 nm. The related fluorescence unit (RFU) of samples will be read out and used for calculating the inhibitory rates of compounds in HCV replication.

C=C[C@@H]1C[C@]1(NC(=O)[C@@H]1C[C@@H](Oc2cc(-c3ccccc3)nc3c2sc2cccc(Cl)c23)CN1C(=O)[C@@H](NC(=O)OC(C)(C)C)C(C)(C)C)C(=O)NS(=O)(=O)C1CC1 [Compound 1]
EC50 [1]: 100 to 1000 nM
EC50 [2]: 100 to 1000 nM

C=C[C@@H]1C[C@]1(NC(=O)[C@@H]1C[C@@H](Oc2cc(-c3ccccc3)nc3c2oc2ccc(OC)cc23)CN1C(=O)[C@@H](NC(=O)OC(C)(C)C)C(C)(C)C)C(=O)NS(=O)(=O)C1CC1 [Compound 3, tert-butyl(S)-1-((2S,4R)-2-((1R,2S)-1-(cyclopropylsulfonylcarbamoyl)-2-vinylcyclopropylcarbamoyl)-4-(8-methoxy-2-phenylbenzofuro [3,2-b]pyridin-4-yloxy)pyrrolidin-1-yl)-3,3-dimethyl-1-oxobutan-2-yl carbamate]
EC50 [1]: < 100 nM
EC50 [2]: 100 to 1000 nM

C=C[C@@H]1C[C@]1(NC(=O)[C@@H]1C[C@@H](Oc2cc(-c3ccccc3)nc3c2oc2ccc(Cl)cc23)CN1C(=O)[C@@H](NC(=O)OC(C)(C)C)C(C)(C)C)C(=O)NS(=O)(=O)C1CC1 [Compound 4, tert-butyl(S)-1-((2S,4R)-4-(8-chloro-2-phenylbenzofuro[3,2-b]pyridin-4-yloxy)-2-((1R,2S)-1-(cyclopropylsulfonylcarbamoyl)-2-vinylcyclopropylcarbamoyl)pyrrolidin-1-yl)-3,3-dimethyl-1-oxobutan-2-yl carbamate]
EC50 [1]: < 100 nM
EC50 [2]: 100 to 1000 nM

CC(C)(C)OC(=O)N[C@H]1CCCCC/C=C\[C@@H]2C[C@@]2(C(=O)NS(=O)(=O)C2CC2)NC(=O)[C@@H]2C[C@@H](Oc3nc4c5ccccc5oc4c4ccccc34)CN2C1=O [Compound 6]
EC50 [1]: < 100 nM
EC50 [2]: < 100 nM

C=C[C@@H]1C[C@]1(NC(=O)[C@@H]1C[C@@H](Oc2cc(-c3ccccc3)nc3c2sc2cc(F)ccc23)CN1C(=O)[C@@H](NC(=O)OC(C)(C)C)C(C)(C)C)C(=O)NS(=O)(=O)C1CC1 [Compound 7]
EC50 [1]: < 100 nM
EC50 [2]: < 100 nM

C=C[C@@H]1C[C@]1(NC(=O)[C@@H]1C[C@@H](Oc2cc(-c3ccccc3)nc3c2oc2ccc(Br)cc23)CN1C(=O)[C@@H](NC(=O)OC(C)(C)C)C(C)(C)C)C(=O)NS(=O)(=O)C1CC1 [Compound 8]
EC50 [1]: < 100 nM
EC50 [2]: 100 to 1000 nM

C=C[C@@H]1C[C@]1(NC(=O)[C@@H]1C[C@@H](Oc2cc(-c3ccccc3)nc3c2sc2ccccc23)CN1C(=O)[C@@H](NC(=O)OC(C)(C)C)C(C)(C)C)C(=O)NS(=O)(=O)C1CC1 [Compound 9]
EC50 [1]: < 100 nM
EC50 [2]: 100 to 1000 nM

CC(C)(C)OC(=O)N[C@H]1CCCCC/C=C\[C@@H]2C[C@@]2(C(=O)NS(=O)(=O)C2CC2)NC(=O)[C@@H]2C[C@@H](Oc3nc4c5ccc(F)cc5sc4c4ccccc34)CN2C1=O [Compound 10]
EC50 [1]: < 100 nM
EC50 [2]: < 100 nM

C=C[C@@H]1C[C@]1(NC(=O)[C@@H]1C[C@@H](Oc2nc3c4cc(Cl)ccc4oc3c3ccccc23)CN1C(=O)[C@@H](NC(=O)OC(C)(C)C)C(C)(C)C)C(=O)NS(=O)(=O)C1CC1 [Compound 11]
EC50 [1]: < 100 nM
EC50 [2]: 100 to 1000 nM

C=C[C@@H]1C[C@]1(NC(=O)[C@@H]1C[C@@H](Oc2nc3c4ccc(F)cc4sc3c3ccccc23)CN1C(=O)[C@@H](NC(=O)OC(C)(C)C)C(C)(C)C)C(=O)NS(=O)(=O)C1CC1 [Compound 12]
EC50 [1]: < 100 nM
EC50 [2]: 100 to 1000 nM

C=C[C@@H]1C[C@]1(NC(=O)[C@@H]1C[C@@H](Oc2nc3c4cc(Cl)ccc4oc3c3ccccc23)CN1C(=O)[C@@H](CC(=O)OC(C)(C)C)C(C)(C)C)C(=O)NS(=O)(=O)C1CC1 [Compound 13]
EC50 [1]: 100 to 1000 nM
EC50 [2]: 100 to 1000 nM

C=C[C@@H]1C[C@]1(NC(=O)[C@@H]1C[C@@H](Oc2nc3c4cc(Cl)ccc4oc3c3ccccc23)CN1C(=O)[C@@H](CC(=O)N1CCCCC1)C(C)(C)C)C(=O)NS(=O)(=O)C1CC1 [Compound 14, (2S,4R)-1-((S)-2-tert-butyl-4-oxo-4-(piperidin-1-yl)butanoyl)-4-(8-chlorobenzofuro[3,2-c]isoquinolin-5-yloxy)-N-((1R,2S)-1-(cyclopropylsulfonylcarbamoyl)-2-vinylcyclopropyl)pyrrolidine-2-carboxamide]
EC50 [1]: < 100 nM
EC50 [2]: 100 to 1000 nM

C=C[C@@H]1C[C@]1(NC(=O)[C@@H]1C[C@@H](Oc2nc3c4cc(OC)ccc4oc3c3ccccc23)CN1C(=O)[C@@H](NC(=O)OC(C)(C)C)C(C)(C)C)C(=O)NS(=O)(=O)C1CC1 [Compound 15]
EC50 [1]: 100 to 1000 nM
EC50 [2]: 100 to 1000 nM

CC(C)(C)OC(=O)N[C@H]1CCCCC/C=C\[C@@H]2C[C@@]2(C(=O)NS(=O)(=O)C2CC2)NC(=O)[C@@H]2C[C@@H](Oc3nc4c5ccccc5oc4c4ccc(Br)cc34)CN2C1=O [Compound 16]
EC50 [1]: < 100 nM
EC50 [2]: < 100 nM

CC(C)(C)OC(=O)N[C@H]1CCCCC/C=C\[C@@H]2C[C@@]2(C(=O)NS(=O)(=O)C2CC2)NC(=O)[C@@H]2C[C@@H](Oc3nc4c5ccccc5oc4c4ccc(Cl)cc34)CN2C1=O [Compound 17]
EC50 [1]: < 100 nM
EC50 [2]: < 100 nM

COc1ccc2oc3c4ccc(Cl)cc4c(O[C@@H]4C[C@H]5C(=O)N[C@]6(C(=O)NS(=O)(=O)C7CC7)C[C@H]6/C=C\CCCCC[C@H](NC(=O)OC(C)(C)C)C(=O)N5C4)nc3c2c1 [Compound 19]
EC50 [1]: < 100 nM
EC50 [2]: < 100 nM

C=C[C@@H]1C[C@]1(NC(=O)[C@@H]1C[C@@H](Oc2nc3c4ccccc4oc3c3ccc(Cl)cc23)CN1C(=O)[C@@H](NC(=O)OC1CCCC1)C(C)(C)C)C(=O)NS(=O)(=O)C1CC1 [Compound 20]
EC50 [1]: < 100 nM
EC50 [2]: < 100 nM

C=C[C@@H]1C[C@]1(NC(=O)[C@@H]1C[C@@H](Oc2cc(-c3ccccc3)nc3c2oc2ccc(OC)cc23)CN1C(=O)[C@@H](NC(=O)OC1CCCC1)C(C)(C)C)C(=O)NS(=O)(=O)C1CC1 [Compound 21]
EC50 [1]: < 100 nM
EC50 [2]: 100 to 1000 nM

C=C[C@@H]1C[C@]1(NC(=O)[C@@H]1C[C@@H](Oc2cc(-c3ccccc3)nc3c2oc2ccc(OC)c(Cl)c23)CN1C(=O)[C@@H](NC(=O)OC1CCCC1)C(C)(C)C)C(=O)NS(=O)(=O)C1CC1 [Compound 22]
EC50 [1]: < 100 nM
EC50 [2]: < 100 nM

C=C[C@@H]1C[C@]1(NC(=O)[C@@H]1C[C@@H](Oc2cc(-c3ccccc3)nc3c2oc2ccc(OC)c(Cl)c23)CN1C(=O)[C@@H](NC(=O)OC(C)(C)C)C(C)(C)C)C(=O)NS(=O)(=O)C1CC1 [Compound 23]
EC50 [1]: < 100 nM
EC50 [2]: < 100 nM

C=C[C@@H]1C[C@]1(NC(=O)[C@@H]1C[C@@H](Oc2cc(-c3csc(C(C)C)n3)nc3c2oc2ccc(OC)c(Cl)c23)CN1C(=O)[C@@H](NC(=O)OC(C)(C)C)C(C)(C)C)C(=O)NS(=O)(=O)C1CC1 [Compound 24]
EC50 [1]: < 100 nM
EC50 [2]: < 100 nM

C=C[C@@H]1C[C@]1(NC(=O)[C@@H]1C[C@@H](Oc2cc(-c3csc(C(C)(C)O)n3)nc3c2oc2ccc(OC)c(Cl)c23)CN1C(=O)[C@@H](NC(=O)OC(C)(C)C)C(C)(C)C)C(=O)NS(=O)(=O)C1CC1 [Compound 25]
EC50 [1]: < 100 nM
EC50 [2]: < 100 nM

C=C[C@@H]1C[C@]1(NC(=O)[C@@H]1C[C@@H](Oc2cc(-c3csc(C(C)(C)O)n3)nc3c2oc2ccc(OC)c(Br)c23)CN1C(=O)[C@@H](NC(=O)OC(C)(C)C)C(C)(C)C)C(=O)NS(=O)(=O)C1CC1 [Compound 26]
EC50 [1]: < 100 nM
EC50 [2]: < 100 nM

C=C[C@@H]1C[C@]1(NC(=O)[C@@H]1C[C@@H](Oc2cc(-c3ccccc3)nc3c2oc2ccc(OC)c(Br)c23)CN1C(=O)[C@@H](NC(=O)OC(C)(C)C)C(C)(C)C)C(=O)NS(=O)(=O)C1CC1 [Compound 27]
EC50 [1]: < 100 nM
EC50 [2]: < 100 nM

C=C[C@@H]1C[C@]1(NC(=O)[C@@H]1C[C@@H](Oc2cc(-c3ccccc3)nc3c2oc2ccc(OC)c(Br)c23)CN1C(=O)[C@@H](NC(=O)OC1CCCC1)C(C)(C)C)C(=O)NS(=O)(=O)C1CC1 [Compound 28]
EC50 [1]: < 100 nM
EC50 [2]: < 100 nM

C=C[C@@H]1C[C@]1(NC(=O)[C@@H]1C[C@@H](Oc2nc3c4ccccc4oc3c3ccc(Cl)cc23)CN1C(=O)[C@@H](NC(=O)OC(C)(C)C)C(C)(C)C)C(=O)NS(=O)(=O)C1CC1 [Compound 29]
EC50 [1]: < 100 nM
EC50 [2]: < 100 nM

C=C[C@@H]1C[C@]1(NC(=O)[C@@H]1C[C@@H](Oc2nc3c4ccccc4oc3c3ccc(Br)cc23)CN1C(=O)[C@@H](NC(=O)OC(C)(C)C)C(C)(C)C)C(=O)NS(=O)(=O)C1CC1 [Compound 30]
EC50 [1]: 100 to 1000 nM
EC50 [2]: 100 to 1000 nM

C=C[C@@H]1C[C@]1(NC(=O)[C@@H]1C[C@@H](Oc2nc3c4ccccc4oc3c3ccc(OC)cc23)CN1C(=O)[C@@H](NC(=O)OC(C)(C)C)C(C)(C)C)C(=O)NS(=O)(=O)C1CC1 [Compound 31]
EC50 [1]: 100 to 1000 nM
EC50 [2]: 100 to 1000 nM
